Experiment: wn = mass fraction of the nth substance listed
Conditions: 101 kPa, Liquid, Alternating current cell with electrodes, w1 = 0.01

CCCCCCCCCC[N+](CC)(CC)CCCCCCCCCC.[Br-] [didecyldiethylammonium bromide] + O
Conditions | electrical conductivity [S/m]
292.15 K | 0.0559
292.25 K | 0.0648
292.35 K | 0.0649
292.45 K | 0.0649
292.55 K | 0.0676
292.65 K | 0.0687
292.75 K | 0.0704
292.85 K | 0.0711
292.95 K | 0.0714
293.05 K | 0.0718
293.15 K | 0.0718
293.35 K | 0.0721
293.45 K | 0.0722
293.55 K | 0.0723
293.65 K | 0.0724
293.75 K | 0.0725
293.85 K | 0.0726
293.95 K | 0.0726
294.05 K | 0.0727
294.15 K | 0.0728
294.35 K | 0.0729
294.45 K | 0.073
294.55 K | 0.0731
294.65 K | 0.0732
294.75 K | 0.0732
294.85 K | 0.0733
294.95 K | 0.0734
295.05 K | 0.0735
295.15 K | 0.0737
295.25 K | 0.0736
295.35 K | 0.0738
295.45 K | 0.0739
295.55 K | 0.074
295.65 K | 0.074
295.75 K | 0.0741
295.85 K | 0.0741
295.95 K | 0.0742
296.05 K | 0.0743
296.15 K | 0.0744
296.25 K | 0.0746
296.35 K | 0.0745
296.45 K | 0.0746
296.55 K | 0.0748
296.65 K | 0.0748
296.75 K | 0.0749
296.85 K | 0.075
296.95 K | 0.075
297.05 K | 0.0752
297.15 K | 0.0752
297.25 K | 0.0752
297.35 K | 0.0754
297.45 K | 0.0755
297.55 K | 0.0755
297.65 K | 0.0757
297.75 K | 0.0757
297.85 K | 0.0758
297.95 K | 0.0759
298.05 K | 0.076
301.15 K | 0.0789
301.25 K | 0.079
301.35 K | 0.0792
301.55 K | 0.0794
301.65 K | 0.0795
301.75 K | 0.0795
301.95 K | 0.0797
302.05 K | 0.0799
302.15 K | 0.08
302.25 K | 0.0801
302.35 K | 0.0802
302.45 K | 0.0802
302.55 K | 0.0803
302.65 K | 0.0803
302.85 K | 0.0806
302.95 K | 0.0807
303.15 K | 0.0809
303.25 K | 0.0811
303.35 K | 0.0811
303.45 K | 0.0812
303.55 K | 0.0814
303.75 K | 0.0816
303.85 K | 0.0817
304.05 K | 0.0818
304.15 K | 0.0819
304.35 K | 0.0821
304.55 K | 0.0823
304.75 K | 0.0825
304.85 K | 0.0826
304.95 K | 0.0827
305.05 K | 0.0829
305.35 K | 0.0831
305.55 K | 0.0831
305.75 K | 0.0836
305.85 K | 0.0838
306.05 K | 0.0839
306.25 K | 0.084
306.35 K | 0.0841
306.45 K | 0.0842
306.65 K | 0.0843
306.75 K | 0.0845
306.95 K | 0.0848
307.05 K | 0.0849
307.25 K | 0.0851
307.55 K | 0.0854
307.65 K | 0.0855
307.85 K | 0.0857
308.15 K | 0.086
308.25 K | 0.0861
308.35 K | 0.0862
308.55 K | 0.0862
308.75 K | 0.0864
308.85 K | 0.0866
309.15 K | 0.0871
309.35 K | 0.0872
309.55 K | 0.0874
309.75 K | 0.0876
309.85 K | 0.0877
309.95 K | 0.0878
310.25 K | 0.088
310.45 K | 0.0882
310.55 K | 0.0883
310.65 K | 0.0884
310.95 K | 0.0888
311.05 K | 0.089
311.25 K | 0.0893
311.45 K | 0.0894
311.65 K | 0.0894
311.75 K | 0.0896
311.85 K | 0.0897
312.15 K | 0.09
312.35 K | 0.0901
312.45 K | 0.0902
312.55 K | 0.0904
312.75 K | 0.0906
312.95 K | 0.0908
313.15 K | 0.091

— the NIST ThermoML archive (doi:10.1021/acs.jced.5b00367)
